Source: ChEMBL document CHEMBL1201862, “PubChem BioAssay data set” (2004)
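Where inhibition never reached the appropriate level, the endpoint shown equals the highest concentration tested. Otherwise, values were interpolated linearly from a five-concentration, 48-hour dose response in 96-well plates. Here, GI50 denotes the concentration required for 50% inhibition of growth.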 Calls of active or inactive are those of the source. Cut-off read from the data, not from the text of the source: active = GI50 up to about 1.1 µM and inactive = higher.

Tests used:
Test in all cases: inhibition of tumour cell growth, NCI panel, 48 h
ACHN = system: ACHN
MDA-MB-435 = system: MDA-MB-435
T47D = system: T47D
PC-3 = system: PC-3
M14 = system: M14
DU-145 = system: DU-145
MOLT-4 = system: MOLT-4
NCI-H522 = system: NCI-H522
SK-OV-3 = system: SK-OV-3
SK-MEL-5 = system: SK-MEL-5
TK-10 = system: TK-10
SF-268 = system: SF-268
K562 = system: K562
OVCAR-5 = system: OVCAR-5
HOP-92 = system: HOP-92
HCT-116 = system: HCT-116
786-0 = system: 786-0
NCI-H460 = system: NCI-H460
IGROV-1 = system: IGROV-1
RPMI-8226 = system: RPMI-8226
A498 = system: A498
Malme-3M = system: Malme-3M
MDA-MB-231 = system: MDA-MB-231
CAKI-1 = system: CAKI-1
UACC-257 = system: UACC-257
SNB-75 = system: SNB-75
Hs-578T = system: Hs-578T
CCRF-CEM = system: CCRF-CEM
SN12C = system: SN12C
KM12 = system: KM12
EKVX = system: EKVX
NCI-H23 = system: NCI-H23
SR = system: SR
MCF7 = system: MCF7
OVCAR-4 = system: OVCAR-4
SF-539 = system: SF-539
HCT-15 = system: HCT-15
SW-620 = system: SW-620
SF-295 = system: SF-295
UACC-62 = system: UACC-62
U-251 = system: U-251
A549 = system: A549
SNB-19 = system: SNB-19
SK-MEL-2 = system: SK-MEL-2
HL-60 = system: HL-60
SK-MEL-28 = system: SK-MEL-28
RXF 393 = system: RXF 393
BT-549 = system: BT-549
NCI-H226 = system: NCI-H226
COLO 205 = system: COLO 205
HT-29 = system: HT-29
MDA-N = system: MDA-N
UO-31 = system: UO-31
LOX IMVI = system: LOX IMVI
OVCAR-8 = system: OVCAR-8
NCI/ADR-RES = system: NCI/ADR-RES
HCC 2998 = system: HCC 2998
OVCAR-3 = system: OVCAR-3
HOP-62 = system: HOP-62

Measured: GI50

O=c1cc(-c2ccccc2)nc(-n2[nH]c3c(c2=O)CCCC3)[nH]1
inactive: ACHN 3.66 µM | MDA-MB-435 4.59 µM | T47D 1.56 µM | PC-3 5 µM | M14 5.68 µM | DU-145 1.57 µM | MOLT-4 2.9 µM | NCI-H522 12.1 µM | SK-OV-3 17.4 µM | SK-MEL-5 4.78 µM | TK-10 5 µM | SF-268 2.7 µM | K562 2.83 µM | OVCAR-5 92.5 µM | HOP-92 2.85 µM | HCT-116 2.7 µM | 786-0 1.91 µM | IGROV-1 4.53 µM | RPMI-8226 4.17 µM | A498 17.6 µM | Malme-3M 11.1 µM | MDA-MB-231 2.92 µM | CAKI-1 7.18 µM | UACC-257 5.86 µM | SNB-75 3.13 µM | Hs-578T 23.4 µM | SN12C 10.8 µM | KM12 13.3 µM | EKVX 4.94 µM | NCI-H23 7.33 µM | MCF7 3.37 µM | OVCAR-4 1.85 µM | SF-539 4.98 µM | SW-620 4.24 µM | SF-295 4.33 µM | UACC-62 2.32 µM | U-251 2.55 µM | A549 4.35 µM | SNB-19 11 µM | SK-MEL-2 2.36 µM | HL-60 2.73 µM | SK-MEL-28 4.29 µM | BT-549 9.38 µM | NCI-H226 3.82 µM | COLO 205 3.82 µM | HT-29 4.31 µM | MDA-N 7.29 µM | UO-31 7.29 µM
1.7 µM: HCT-15
active: NCI-H460 1.08 µM | CCRF-CEM 0.769 µM | SR 1.03 µM | RXF 393 0.656 µM

CCOC(=O)N1c2ccccc2S(=O)(=O)c2ccccc21
inactive: ACHN > 100 µM | MDA-MB-435 > 100 µM | T47D 67.8 µM | PC-3 > 100 µM | M14 > 100 µM | DU-145 > 100 µM | MOLT-4 > 100 µM | NCI-H522 > 100 µM | LOX IMVI > 100 µM | SK-OV-3 > 100 µM | SK-MEL-5 > 100 µM | TK-10 > 100 µM | SF-268 > 100 µM | K562 > 100 µM | OVCAR-5 > 100 µM | HCT-116 > 100 µM | 786-0 > 100 µM | NCI-H460 > 100 µM | IGROV-1 > 100 µM | A498 > 100 µM | MDA-MB-231 > 100 µM | CAKI-1 > 100 µM | UACC-257 > 100 µM | Hs-578T > 100 µM | OVCAR-8 > 100 µM | CCRF-CEM > 100 µM | SN12C > 100 µM | KM12 > 100 µM | EKVX > 100 µM | NCI-H23 > 100 µM | NCI/ADR-RES > 100 µM | MCF7 > 100 µM | OVCAR-4 > 100 µM | SF-539 > 100 µM | SW-620 > 100 µM | SF-295 > 100 µM | UACC-62 > 100 µM | U-251 > 100 µM | A549 > 100 µM | SNB-19 > 100 µM | HCC 2998 > 100 µM | OVCAR-3 > 100 µM | SK-MEL-2 > 100 µM | HL-60 > 100 µM | SK-MEL-28 > 100 µM | HOP-62 > 100 µM | RXF 393 > 100 µM | BT-549 > 100 µM | NCI-H226 > 100 µM | COLO 205 > 100 µM | HT-29 > 100 µM | MDA-N > 100 µM | UO-31 > 100 µM
> 100 µM: HCT-15
